# Measurements: patent US8551984B2, “Aminopyrimidines as SYK inhibitors” (Merck Sharp & Dohme Corp., priority 2009, dated 2013)
# Target: recombinant human SYK (GST-hSYK fusion protein) (Homo sapiens, UniProt P43405)
# Experiment: biochemical
# Conditions: rhSYK Activity (IC50), recombinant human GST-SYK 5 pM, ATP 25 μM, biotinylated substrate peptide 250 nM, HTRF, 10-dose titration
# Excerpt: Homogeneous Time-Resolved Fluorescence (HTRF) Assay for the Recombinant Human SYK Enzyme:
row,IC50 [nM],SMILES
1,< 100,Cc1cc(Nc2nccc(C(F)(F)F)n2)cc(-c2cnc(CNCC(N)=O)s2)c1 [Example 88A-22]
2,< 100,Cc1cc(Nc2nccc(C(F)(F)F)n2)cc(-c2cnc(CNCCC(N)=O)s2)c1 [Example 88A-23]
3,< 100,Cc1cc(Nc2nccc(C(F)(F)F)n2)cc(-c2cnc(CNCCS(C)(=O)=O)s2)c1 [Example 88A-24]
4,< 100,Cc1cc(Nc2nccc(C(F)(F)F)n2)cc(-c2cnc(CN(C)CCS(C)(=O)=O)s2)c1 [Example 88A-25]
5,< 100,CCn1cc(NCc2ncc(-c3cc(C)cc(Nc4nccc(C(F)(F)F)n4)c3)s2)nn1 [Example 88A-26]
6,< 100,Cc1cc(Nc2nccc(C(F)(F)F)n2)cc(-c2cnc(CN(C)CC(O)CO)s2)c1 (stereo not shown) [Example 88A-28]
7,< 100,Cc1cc(Nc2nccc(C(F)(F)F)n2)cc(-c2cnc(CNC3CCCCNC3=O)s2)c1 (stereo not shown) [Example 88A-29]
8,< 100,Cc1cc(Nc2nccc(C(F)(F)F)n2)cc(-c2cnc(CNCCN3CCNC(=O)C3)s2)c1 [Example 88A-30]
9,< 100,CNS(=O)(=O)CCNCc1ncc(-c2cc(C)cc(Nc3nccc(C(F)(F)F)n3)c2)s1 [Example 88A-31]
10,< 100,Cc1cc(Nc2nccc(C(F)(F)F)n2)cc(-c2cnc(CNc3cc(C(=O)O)n[nH]3)s2)c1 [Example 88A-32]
11,< 100,Cc1cc(Nc2nccc(C(F)(F)F)n2)cc(-c2cnc(CNCC(C)(C)O)s2)c1 [Example 88A-33]
12,< 100,Cc1cc(Nc2nccc(C(F)(F)F)n2)cc(-c2cnc(CNC3CCNC3=O)s2)c1 (stereo not shown) [Example 88A-35]
13,< 100,Cc1cc(Nc2nccc(C(F)(F)F)n2)cc(-c2cnc(CNC3CNC(=O)C3)s2)c1 (stereo not shown) [Example 88A-36]
14,< 100,Cc1cc(Nc2nccc(C(F)(F)F)n2)cc(-c2cnc(C(C)N(C)C)s2)c1 (stereo not shown) [Example 88A-38]
15,< 100,Cc1cc(Nc2nccc(C(F)(F)F)n2)cc(-c2cnc(C(C)NC3CNC(=O)C3)s2)c1 (stereo not shown) [Example 88A-39]
16,< 100,Cc1cc(Nc2nccc(C(F)(F)F)n2)cc(-c2cnc(CN)s2)c1 [Example 88A-40]

row,IC50 [nM],SMILES
1,< 100,Cc1cc(Nc2nccc(C(F)(F)F)n2)cc(-c2cnc(CNCC(O)CO)s2)c1 (stereo not shown) [Example 88A-41]
2,< 100,Cc1cc(Nc2nccc(C(F)(F)F)n2)cc(-c2cnc(CNCCOCCO)s2)c1 [Example 88A-42]
3,< 100,Cc1cc(Nc2nccc(C(F)(F)F)n2)cc(-c2cnc(CNC(C)(C)CC(C)O)s2)c1 (stereo not shown) [Example 88A-45]
4,< 100,Cc1cc(Nc2nccc(C(F)(F)F)n2)cc(-c2cnc(CNCC3(CO)COC3)s2)c1 [Example 88A-46]
5,< 100,Cc1cc(Nc2nccc(C(F)(F)F)n2)cc(-c2cnc(CNC(CO)(CO)CO)s2)c1 [Example 88A-47]
6,< 100,Cc1cc(Nc2nccc(C(F)(F)F)n2)cc(-c2cnc(CNCC3(CO)CCOCC3)s2)c1 [Example 88A-49]
7,< 100,Cc1cc(Nc2nccc(C(F)(F)F)n2)cc(-c2cnc(CNCCCN(CCO)CCO)s2)c1 [Example 88A-51]
8,< 100,Cc1cc(Nc2nccc(C(F)(F)F)n2)cc(-c2cnc(CN(CCO)CCS(=O)(=O)O)s2)c1 [Example 88A-52]
9,< 100,Cc1cc(Nc2nccc(C(F)(F)F)n2)cc(-c2cnc(CN(C)C3COCC3O)s2)c1 (stereo not shown) [Example 88A-54]
10,< 100,Cc1cc(Nc2nccc(C(F)(F)F)n2)cc(-c2cnc(CNC3(C)CCCCC3CO)s2)c1 (stereo not shown) [Example 88A-55]
11,< 100,Cc1cc(Nc2nccc(C(F)(F)F)n2)cc(-c2cnc(CNC3CS(=O)(=O)CC3O)s2)c1 (stereo not shown) [Example 88A-57]
12,< 100,CCN(Cc1ncc(-c2cc(C)cc(Nc3nccc(C(F)(F)F)n3)c2)s1)C1CS(=O)(=O)CC1O (stereo not shown) [Example 88A-58]
13,< 100,CNC(=O)NCc1ncc(-c2cc(C)cc(Nc3nccc(C(F)(F)F)n3)c2)s1 [Example 88A-61]
14,< 100,CCNC(=O)NCc1ncc(-c2cc(C)cc(Nc3nccc(C(F)(F)F)n3)c2)s1 [Example 88A-62]
15,< 100,Cc1cc(Nc2nccc(C(F)(F)F)n2)cc(-c2cnc(CNC(=O)NC(C)C)s2)c1 [Example 88A-63]
